Results reported in ChEMBL document CHEMBL4814007, “Structure-based discovery of SIAIS001 as an oral bioavailability ALK degrader constructed from Alectinib” (Eur J Med Chem, 2021).
Active and inactive are the calls of the source. The calls are words filed in the database; no cut-off is given here.

Assays:
SR [1] = experiment: Antiproliferative activity against ALK positive human SR cells; type: functional, cell-based
[2] = molecular target: T1, Protein cereblon/ALK tyrosine kinase receptor (Homo sapiens, UniProt Q9UM73+Q96SW2); experiment: Protac activity at CRBN/ALK in human SR cells assessed as increase in ALK degradation at 500 nM by Western blot analysis; type: cell-based
[3] = molecular target: T1, Protein cereblon/ALK tyrosine kinase receptor; experiment: Protac activity at CRBN/ALK in human SR cells assessed as protein abundance at 5 nM by Western blot analysis (reference value: 1); type: cell-based
[4] = molecular target: T1, Protein cereblon/ALK tyrosine kinase receptor; experiment: Protac activity at CRBN/ALK in human SR cells assessed as protein abundance at 0.05 nM by Western blot analysis (reference value: 1); type: cell-based
[5] = molecular target: T1, Protein cereblon/ALK tyrosine kinase receptor; experiment: Protac activity at CRBN/ALK in human SR cells assessed as protein abundance at 0.5 nM by Western blot analysis (reference value: 1); type: cell-based
[6] = molecular target: T1, Protein cereblon/ALK tyrosine kinase receptor; experiment: Protac activity at CRBN/ALK in human SR cells assessed as protein abundance at 50 nM by Western blot analysis (reference value: 1); type: cell-based
[7] = molecular target: T1, Protein cereblon/ALK tyrosine kinase receptor; experiment: Protac activity at CRBN/ALK in human SR cells assessed as protein abundance at 500 nM by Western blot analysis (reference value: 1); type: cell-based
[8] = molecular target: von Hippel-Lindau disease tumor suppressor/ALK tyrosine kinase receptor (Homo sapiens) (UniProt Q9UM73+P40337); experiment: Protac activity at VHL1/ALK in human SR cells assessed as increase in ALK degradation at 500 nM by Western blot analysis; type: cell-based
SR [9] = experiment: Induction of cell cycle arrest in human SR cells assessed as increase in accumulation at G1/S phase at 100 nM incubated for 24 hrs; type: functional, cell-based
SR [10] = experiment: Induction of cell cycle arrest in human SR cells assessed as increase in accumulation at S phase at 100 nM incubated for 24 hrs; type: functional, cell-based

T1 sequence (Q96SW2 whole entry partner): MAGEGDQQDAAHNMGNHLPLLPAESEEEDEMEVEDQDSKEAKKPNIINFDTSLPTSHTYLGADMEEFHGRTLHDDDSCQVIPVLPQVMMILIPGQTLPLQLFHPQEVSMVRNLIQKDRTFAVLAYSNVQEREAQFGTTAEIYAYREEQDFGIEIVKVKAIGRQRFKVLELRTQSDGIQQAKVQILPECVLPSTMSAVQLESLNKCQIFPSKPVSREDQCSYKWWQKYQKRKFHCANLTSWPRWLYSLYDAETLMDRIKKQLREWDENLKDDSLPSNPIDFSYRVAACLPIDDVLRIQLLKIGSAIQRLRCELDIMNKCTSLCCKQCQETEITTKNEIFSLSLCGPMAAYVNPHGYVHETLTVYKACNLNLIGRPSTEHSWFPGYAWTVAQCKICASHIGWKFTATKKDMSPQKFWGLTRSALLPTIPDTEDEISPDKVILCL
T1 sequence (Q9UM73 19-1620 limits assumed): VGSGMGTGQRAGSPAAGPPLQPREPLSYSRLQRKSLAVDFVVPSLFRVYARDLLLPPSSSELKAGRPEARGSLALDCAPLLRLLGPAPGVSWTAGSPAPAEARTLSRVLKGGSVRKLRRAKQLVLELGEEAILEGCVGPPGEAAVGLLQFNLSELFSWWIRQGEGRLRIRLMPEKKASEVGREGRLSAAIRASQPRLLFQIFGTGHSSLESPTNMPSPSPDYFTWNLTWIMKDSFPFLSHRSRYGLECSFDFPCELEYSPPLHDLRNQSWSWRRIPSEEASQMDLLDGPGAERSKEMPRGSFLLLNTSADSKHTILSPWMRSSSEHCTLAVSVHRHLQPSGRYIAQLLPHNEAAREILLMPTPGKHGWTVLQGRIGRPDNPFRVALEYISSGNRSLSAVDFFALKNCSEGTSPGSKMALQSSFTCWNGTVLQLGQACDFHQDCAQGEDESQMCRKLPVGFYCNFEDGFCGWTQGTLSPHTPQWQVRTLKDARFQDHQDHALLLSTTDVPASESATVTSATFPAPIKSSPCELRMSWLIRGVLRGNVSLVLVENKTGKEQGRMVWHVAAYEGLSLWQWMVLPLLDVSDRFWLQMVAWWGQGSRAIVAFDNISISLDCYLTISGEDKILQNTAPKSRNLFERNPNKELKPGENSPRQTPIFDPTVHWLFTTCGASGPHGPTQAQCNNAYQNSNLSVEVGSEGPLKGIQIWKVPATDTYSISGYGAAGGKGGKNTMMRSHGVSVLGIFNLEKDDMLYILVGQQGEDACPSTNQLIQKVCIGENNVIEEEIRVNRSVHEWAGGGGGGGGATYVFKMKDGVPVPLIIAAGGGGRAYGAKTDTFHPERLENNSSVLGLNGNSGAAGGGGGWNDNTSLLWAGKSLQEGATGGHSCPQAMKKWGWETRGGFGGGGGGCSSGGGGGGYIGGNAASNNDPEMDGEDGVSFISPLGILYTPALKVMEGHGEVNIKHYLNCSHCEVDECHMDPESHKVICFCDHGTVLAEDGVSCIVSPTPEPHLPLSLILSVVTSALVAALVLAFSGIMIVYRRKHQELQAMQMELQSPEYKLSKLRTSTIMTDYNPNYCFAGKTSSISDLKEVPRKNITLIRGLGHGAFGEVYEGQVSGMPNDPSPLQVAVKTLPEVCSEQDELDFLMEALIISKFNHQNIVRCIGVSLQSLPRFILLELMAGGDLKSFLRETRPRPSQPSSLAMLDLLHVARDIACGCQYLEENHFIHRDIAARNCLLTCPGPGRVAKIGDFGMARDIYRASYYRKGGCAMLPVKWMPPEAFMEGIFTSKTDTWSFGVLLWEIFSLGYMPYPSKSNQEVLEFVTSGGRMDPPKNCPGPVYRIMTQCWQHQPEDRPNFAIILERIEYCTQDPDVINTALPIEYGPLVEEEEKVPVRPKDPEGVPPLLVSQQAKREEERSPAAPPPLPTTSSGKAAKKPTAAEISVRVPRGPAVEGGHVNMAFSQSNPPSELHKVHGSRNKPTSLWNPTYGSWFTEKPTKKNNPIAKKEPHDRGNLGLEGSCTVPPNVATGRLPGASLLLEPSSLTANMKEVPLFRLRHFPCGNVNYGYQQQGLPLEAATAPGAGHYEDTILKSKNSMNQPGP
von Hippel-Lindau disease tumor suppressor/ALK tyrosine kinase receptor (Homo sapiens), sequence (P40337 whole entry partner): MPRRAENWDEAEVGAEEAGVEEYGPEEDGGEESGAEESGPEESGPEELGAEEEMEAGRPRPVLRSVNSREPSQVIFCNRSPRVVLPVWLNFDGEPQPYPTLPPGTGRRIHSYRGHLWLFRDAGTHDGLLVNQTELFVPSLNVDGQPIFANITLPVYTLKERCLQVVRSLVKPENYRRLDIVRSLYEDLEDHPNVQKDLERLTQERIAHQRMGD
von Hippel-Lindau disease tumor suppressor/ALK tyrosine kinase receptor (Homo sapiens), sequence (Q9UM73 19-1620 limits assumed): as the sequence (Q9UM73 19-1620 limits assumed) above

Structure (SMILES) | IC50 (SR [1]) [nM] | also measured
CCc1cc2c(cc1N1CCC(N3CCN(C(=O)CCOCCOCCOCCOCCNc4cccc5c4C(=O)N(C4CCC(=O)NC4=O)C5=O)CC3)CC1)C(C)(C)c1[nH]c3cc(C#N)ccc3c1C2=O (stereo unspecified) | 3.1 | Activity [2]: Active; Activity [3]: 0.96; Activity [4]: 1.01; Activity [5]: 1.03; Activity [6]: 0.7; Activity [7]: 0.53
CCc1cc2c(cc1N1CCC(N3CCN(C(=O)CCOCCOCCNc4cccc5c4C(=O)N(C4CCC(=O)NC4=O)C5=O)CC3)CC1)C(C)(C)c1[nH]c3cc(C#N)ccc3c1C2=O (stereo unspecified) | 2.5 | 
CCc1cc2c(cc1N1CCC(N3CCN(C(=O)CCCNc4cccc5c4CN(C4CCC(=O)NC4=O)C5=O)CC3)CC1)C(C)(C)c1[nH]c3cc(C#N)ccc3c1C2=O (stereo unspecified) | 3.3 | 
CCc1cc2c(cc1N1CCC(NC(=O)CCCCCNc3cccc4c3C(=O)N(C3CCC(=O)NC3=O)C4=O)CC1)C(C)(C)c1[nH]c3cc(C#N)ccc3c1C2=O (stereo unspecified) | 3.8 | 
CCc1cc2c(cc1N1CCC(N3CCN(CCCCCCCC#Cc4cccc5c4CN(C4CCC(=O)NC4=O)C5=O)CC3)CC1)C(C)(C)c1[nH]c3cc(C#N)ccc3c1C2=O (stereo unspecified) | 3.3 | 
CCc1cc2c(cc1N1CCC(N3CCN(C(=O)CCCCCCCCC(=O)NC(C(=O)N4C[C@H](O)C[C@H]4C(=O)NCc4ccc(-c5scnc5C)cc4)C(C)(C)C)CC3)CC1)C(C)(C)c1[nH]c3cc(C#N)ccc3c1C2=O (single isomer, unassigned) | 18 | Activity [8]: Active
CCc1cc2c(cc1N1CCC(NC(=O)CNc3cccc4c3C(=O)N(C3CCC(=O)NC3=O)C4=O)CC1)C(C)(C)c1[nH]c3cc(C#N)ccc3c1C2=O (stereo unspecified) | 13.5 | 
CCc1cc2c(cc1N1CCC(NC(=O)CCOCCOCCOCCOCCNc3cccc4c3C(=O)N(C3CCC(=O)NC3=O)C4=O)CC1)C(C)(C)c1[nH]c3cc(C#N)ccc3c1C2=O (stereo unspecified) | 5.9 | 
COc1cc(N2CCC(N3CCN(C)CC3)CC2)ccc1Nc1ncc(Cl)c(Nc2ccccc2P(C)(C)=O)n1 [BRIGATINIB] | 1.9 | 
CCc1cc2c(cc1N1CCN(C(=O)CCOCCOCCOCCOCCNc3cccc4c3C(=O)N(C3CCC(=O)NC3=O)C4=O)CC1)C(C)(C)c1[nH]c3cc(C#N)ccc3c1C2=O (stereo unspecified) | 11.9 | 
CCc1cc2c(cc1N1CCC(N3CCNCC3)CC1)C(C)(C)c1[nH]c3cc(C#N)ccc3c1C2=O | 4.9 | 
Cc1cc(Nc2ncc(Cl)c(Nc3ccccc3S(=O)(=O)C(C)C)n2)c(OC(C)C)cc1C1CCN(C(=O)NCCNC(=O)CNc2cccc3c2C(=O)N(C2CCC(=O)NC2=O)C3=O)CC1 (stereo unspecified) | 8.5 | 
CCc1cc2c(cc1N1CCC(N3CCN(C(=O)CNc4cccc5c4C(=O)N(C4CCC(=O)NC4=O)C5=O)CC3)CC1)C(C)(C)c1[nH]c3cc(C#N)ccc3c1C2=O (stereo unspecified) | 4.1 | Activity [8]: Active
Cc1cc(Nc2ncc(Cl)c(Nc3ccccc3S(=O)(=O)C(C)C)n2)c(OC(C)C)cc1C1CCN(CCOCCOCCNC(=O)CNc2cccc3c2C(=O)N(C2CCC(=O)NC2=O)C3=O)CC1 (stereo unspecified) | 5.9 | 
CCc1cc2c(cc1N1CCC(N3CCN(C(=O)CCCCCNc4cccc5c4CN(C4CCC(=O)NC4=O)C5=O)CC3)CC1)C(C)(C)c1[nH]c3cc(C#N)ccc3c1C2=O (stereo unspecified) | 4 | 
CCc1cc2c(cc1N1CCC(N3CCOCC3)CC1)C(C)(C)c1[nH]c3cc(C#N)ccc3c1C2=O [ALECTINIB] | 3.4 | Activity (SR [9]): Active; Activity (SR [10]): Active
CCc1cc2c(cc1N1CCC(N3CCN(CCCCCCC#Cc4cccc5c4CN(C4CCC(=O)NC4=O)C5=O)CC3)CC1)C(C)(C)c1[nH]c3cc(C#N)ccc3c1C2=O (stereo unspecified) | 1.6 | 

Structure (SMILES) | IC50 (SR [1]) [nM] | also measured
CCc1cc2c(cc1N1CCC(NC(=O)CCCNc3cccc4c3C(=O)N(C3CCC(=O)NC3=O)C4=O)CC1)C(C)(C)c1[nH]c3cc(C#N)ccc3c1C2=O (stereo unspecified) | 8.2 | 
CCc1cc2c(cc1N1CCC(N3CCN(C(=O)CCCCNc4cccc5c4CN(C4CCC(=O)NC4=O)C5=O)CC3)CC1)C(C)(C)c1[nH]c3cc(C#N)ccc3c1C2=O (stereo unspecified) | 4.7 | 
CCc1cc2c(cc1N1CCNCC1)C(C)(C)c1[nH]c3cc(C#N)ccc3c1C2=O | 0.8 | 
Cc1cc(Nc2ncc(Cl)c(Nc3ccccc3S(=O)(=O)C(C)C)n2)c(OC(C)C)cc1C1CCN(C(=O)NCCOCCOCCOCCOCCOCCNC(=O)CNc2cccc3c2C(=O)N(C2CCC(=O)NC2=O)C3=O)CC1 (stereo unspecified) | 13.8 | 
CCc1cc2c(cc1N1CCC(N3CCN(CCCCCC#Cc4cccc5c4CN(C4CCC(=O)NC4=O)C5=O)CC3)CC1)C(C)(C)c1[nH]c3cc(C#N)ccc3c1C2=O (stereo unspecified) | 1.8 | Activity [3]: 0.76; Activity [4]: 1.08; Activity [5]: 1.09; Activity [6]: 0.67; Activity [7]: 0.69
CCc1cc2c(cc1N1CCN(C(=O)CCCNc3cccc4c3C(=O)N(C3CCC(=O)NC3=O)C4=O)CC1)C(C)(C)c1[nH]c3cc(C#N)ccc3c1C2=O (stereo unspecified) | 9.2 | 
CCc1cc2c(cc1N1CCC(N)CC1)C(C)(C)c1[nH]c3cc(C#N)ccc3c1C2=O | 2.8 | 
CCc1cc2c(cc1N1CCN(C(=O)CNc3cccc4c3C(=O)N(C3CCC(=O)NC3=O)C4=O)CC1)C(C)(C)c1[nH]c3cc(C#N)ccc3c1C2=O (stereo unspecified) | 3.2 | Activity [2]: Active; Activity [3]: 0.89; Activity [4]: 1.17; Activity [5]: 1.12; Activity [6]: 0.66; Activity [7]: 0.43
Cc1cc(Nc2ncc(Cl)c(Nc3ccccc3S(=O)(=O)C(C)C)n2)c(OC(C)C)cc1C1CCNCC1 [CERITINIB] | 2.2 | 
CCc1cc2c(cc1N1CCC(N3CCN(CCCCC#Cc4cccc5c4CN(C4CCC(=O)NC4=O)C5=O)CC3)CC1)C(C)(C)c1[nH]c3cc(C#N)ccc3c1C2=O (stereo unspecified) | 1.2 | 
CCc1cc2c(cc1N1CCN(C(=O)CCCCCNc3cccc4c3C(=O)N(C3CCC(=O)NC3=O)C4=O)CC1)C(C)(C)c1[nH]c3cc(C#N)ccc3c1C2=O (stereo unspecified) | 15.1 | 
COc1cc(N2CCC(NC(=O)CCCCCCCCCC(=O)N[C@@H](C(=O)N3C[C@H](O)C[C@H]3C(=O)NCc3ccc(-c4scnc4C)cc3)C(C)(C)C)CC2)ccc1Nc1ncc(Cl)c(Nc2ccccc2P(C)(C)=O)n1 | 1.1 | 
CCc1cc2c(cc1N1CCC(N3CCN(C(=O)CCCCCNc4cccc5c4C(=O)N(C4CCC(=O)NC4=O)C5=O)CC3)CC1)C(C)(C)c1[nH]c3cc(C#N)ccc3c1C2=O (stereo unspecified) | 3.4 | 
CCc1cc2c(cc1N1CCC(N3CCN(C(=O)CCCNc4cccc5c4C(=O)N(C4CCC(=O)NC4=O)C5=O)CC3)CC1)C(C)(C)c1[nH]c3cc(C#N)ccc3c1C2=O (stereo unspecified) | 12.9 | Activity [2]: Active; Activity [3]: 0.66; Activity [4]: 1.05; Activity [5]: 0.82; Activity [6]: 0.55; Activity [7]: 0.47
CCc1cc2c(cc1N1CCN(C(=O)CCOCCOCCNc3cccc4c3C(=O)N(C3CCC(=O)NC3=O)C4=O)CC1)C(C)(C)c1[nH]c3cc(C#N)ccc3c1C2=O (stereo unspecified) | 30.8 | 
CCc1cc2c(cc1N1CCC(N3CCN(C(=O)CCCCCCNc4cccc5c4CN(C4CCC(=O)NC4=O)C5=O)CC3)CC1)C(C)(C)c1[nH]c3cc(C#N)ccc3c1C2=O (stereo unspecified) | 9.2 | 
CCc1cc2c(cc1N1CCC(NC(=O)CCOCCOCCNc3cccc4c3C(=O)N(C3CCC(=O)NC3=O)C4=O)CC1)C(C)(C)c1[nH]c3cc(C#N)ccc3c1C2=O (stereo unspecified) | 12 | 
